This note sets out measurements from patent US9371331B2, “Modulators of methyl modifying enzymes, compositions and uses thereof” (Constellation Pharmaceuticals, Inc., priority 2012, dated 2016).

The target of one assay is Y641N EZH2 (Homo sapiens, UniProt Q15910, Y641N). Nature of the assay: Y641N EZH2 assay: as EZH2 assay, with reconstituted H3K27Me2 oligonucleosomes as substrate. Format: biochemical.
The test system of assay [1] is H3K27me3 mark in HeLa cells. Description: H3K27me3 Alpha Hela Assay (AlphaLISA). It is filed as cell-based. As to conditions: Homo sapiens, 72 hrs, read-out: H3K27me3_Alpha_HeLa_ (EC50). The protocol: H3K27me3 Alpha Hela Assay (AlphaLISA).
Ten different doses of each test compound (in a series of 3-fold dilutions) were plated in duplicate 384-well tissue culture treated plates (Catalog #781080; Greiner Bio One; Monroe, N.C.). Hela cells grown in culture were trypsinized and counted using a Countess® cell counter (Catalog #C10281; Life Technologies, Grand Island, N.Y.). Cell were diluted to 67,000 cells per mL in 10% DMEM (Catalog #10569-010 Life Technologies. Grand Island, N.Y.) and 15 μL (1,000 cells) were plated into each well using the Biotek MicroFlo™ Select Dispenser (BioTek Instruments. Inc. Vermont, USA),) of the 384-well plate. Plates were incubated at 37° C./5% CO2 for 72 hrs. One of the duplicate plates was processed for HeLa assay and the other for viability.
To the plate processed for AlphaLISA was added 5 μL per well Cell-Histone Lysis buffer (1×) (Catalog #AL009F1 Perkin Elmer; Waltham, Mass.) and the plate was incubated at RT for 30 minutes on a plate shaker with low speed (Model#4625-Q Thermo Scientific; Waltham, Mass.). Then, 10 µL per well Histone Extraction buffer (catalog #AL009F2: Perkin Elmer; Waltham, Mass.) was added and the plate further incubated at RT for 20 min on plate shaker with low speed. To each well was then added 10 μL per well of a 5× mix of anti-K27me3 acceptor beads plus Biotinylated anti-Histone H3 (C-ter) Antibody (diluted to 3 nM final) (Catalog #AL118 Perkin Elmer; Waltham, Mass.). Dilution of the acceptor beads and then anti-Histone H3 was with 1× Histone Detection buffer (Catalog #AL009F3 Perkin Elmer; Waltham, Mass.) which was produced diluted from the 10× stock provided. The plate was sealed with an aluminum plate sealer and incubated at 23° C. for 60 min. We then added 10 μL 5× solution of Streptavidin Donor beads (Catalog #6760002 Perkin Elmer; Waltham, Mass.) (20 μg/mL final in 1× Histone Detection Buffer), sealed the plate with Aluminum plate sealer and incubated at 23° C. for 30 min. The plates were then read using an EnVision-Alpha Reader (model #2104 Perkin Elmer: Waltham, Mass.).
Data from both assays was analyzed using Assay Assistant (Constellation Pharmaceuticals In-house product) and Activity Base (IDBS Ltd. Surrey, UK) template. Data files were imported to Assay Assistant and assay conditions were specified. A unique Analysis ID was created and the data files exported to Activity Base. An analysis template was created on Activity Base to measure dose-dependent inhibition of H3K27me3 mark and cell viability respectively. Readout of DMSO wells were used to normalize the data. Resulting curves were fitted using Activity base software Model 205 (IDBS Ltd, Surrey, UK). The data was checked for quality, validated and integrated in excel format using SARview (IDBS Ltd, Surrey, UK).

Another assay addresses EZH2 (rPRC2) (Homo sapiens, UniProt Q15910). Nature of the assay: EZH2 assay: rPRC2, biotinylated oligonucleosomes, 3H SAM methyl transfer (FlashPlate scintillation). Format: biochemical. The following applies: biotinylated oligonucleosome substrate.
The test system of assay [2] is H3K27me3 mark in HeLa cells. Nature of the assay: H3K27me3 MSD Hela Assay. It is filed as cell-based. As to conditions: read-out: H3K27me3_MSD_HeLa_ (EC50). The procedure, abridged:
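HeLa cells treated with compound at various concentrations for 96 h at 37 °C, then lysed with high-salt extraction. H3K27me3 measured by MSD electrochemiluminescence immunoassay on total-H3 capture plates. Dose-dependent inhibition normalised to DMSO wells and fitted to curves.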

The mark [3] stands for this setting: Y641N EZH2 IC50, Y641N mutant EZH2, H3K27Me2 oligonucleosome substrate.
Setting [4] is: EZH2 IC50, wild-type EZH2 (rPRC2).
[5] abbreviates: Y641N mutant EZH2, H3K27Me2 oligonucleosome substrate, read-out: Y641N EZH2 IC50.
[6] abbreviates: wild-type EZH2 (rPRC2), read-out: EZH2 IC50.

Where two headings read alike, the source gives them in different places. A value given as a limit tells only on which side of the number the result lay.

Chain of Y641N EZH2 (Q15910 whole entry Y641N): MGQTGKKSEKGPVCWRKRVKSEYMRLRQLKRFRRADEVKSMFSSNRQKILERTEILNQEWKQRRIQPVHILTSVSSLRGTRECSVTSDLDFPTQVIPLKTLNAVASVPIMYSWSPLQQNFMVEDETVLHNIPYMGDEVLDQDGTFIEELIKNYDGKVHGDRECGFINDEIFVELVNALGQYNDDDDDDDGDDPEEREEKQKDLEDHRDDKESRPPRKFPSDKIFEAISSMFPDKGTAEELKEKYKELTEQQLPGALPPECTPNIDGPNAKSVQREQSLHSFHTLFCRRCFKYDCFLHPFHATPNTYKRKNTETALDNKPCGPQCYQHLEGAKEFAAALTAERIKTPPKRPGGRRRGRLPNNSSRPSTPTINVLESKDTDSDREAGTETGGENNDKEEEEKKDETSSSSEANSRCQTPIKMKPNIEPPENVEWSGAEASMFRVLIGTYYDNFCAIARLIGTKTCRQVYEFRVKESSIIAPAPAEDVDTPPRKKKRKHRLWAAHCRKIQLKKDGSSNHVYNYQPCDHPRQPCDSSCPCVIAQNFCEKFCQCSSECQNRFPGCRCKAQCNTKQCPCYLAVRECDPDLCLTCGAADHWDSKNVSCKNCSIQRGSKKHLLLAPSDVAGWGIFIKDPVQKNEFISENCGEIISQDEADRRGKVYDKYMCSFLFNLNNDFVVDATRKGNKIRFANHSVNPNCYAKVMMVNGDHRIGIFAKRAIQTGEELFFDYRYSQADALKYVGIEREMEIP
Chain of Y641N EZH2 (O75530 whole entry partner): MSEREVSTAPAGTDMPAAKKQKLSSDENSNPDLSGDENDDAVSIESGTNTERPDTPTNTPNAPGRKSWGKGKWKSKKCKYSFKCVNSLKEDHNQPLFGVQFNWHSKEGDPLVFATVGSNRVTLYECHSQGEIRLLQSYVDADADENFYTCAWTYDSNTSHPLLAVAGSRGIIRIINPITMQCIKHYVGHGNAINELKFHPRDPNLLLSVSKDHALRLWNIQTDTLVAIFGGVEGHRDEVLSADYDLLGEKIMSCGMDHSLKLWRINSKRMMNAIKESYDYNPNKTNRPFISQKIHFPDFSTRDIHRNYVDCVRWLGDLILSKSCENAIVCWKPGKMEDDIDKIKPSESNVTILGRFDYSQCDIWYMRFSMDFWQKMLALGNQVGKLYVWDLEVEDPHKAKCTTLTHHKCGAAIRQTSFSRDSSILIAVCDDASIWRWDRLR
Chain of Y641N EZH2 (Q15022 whole entry partner): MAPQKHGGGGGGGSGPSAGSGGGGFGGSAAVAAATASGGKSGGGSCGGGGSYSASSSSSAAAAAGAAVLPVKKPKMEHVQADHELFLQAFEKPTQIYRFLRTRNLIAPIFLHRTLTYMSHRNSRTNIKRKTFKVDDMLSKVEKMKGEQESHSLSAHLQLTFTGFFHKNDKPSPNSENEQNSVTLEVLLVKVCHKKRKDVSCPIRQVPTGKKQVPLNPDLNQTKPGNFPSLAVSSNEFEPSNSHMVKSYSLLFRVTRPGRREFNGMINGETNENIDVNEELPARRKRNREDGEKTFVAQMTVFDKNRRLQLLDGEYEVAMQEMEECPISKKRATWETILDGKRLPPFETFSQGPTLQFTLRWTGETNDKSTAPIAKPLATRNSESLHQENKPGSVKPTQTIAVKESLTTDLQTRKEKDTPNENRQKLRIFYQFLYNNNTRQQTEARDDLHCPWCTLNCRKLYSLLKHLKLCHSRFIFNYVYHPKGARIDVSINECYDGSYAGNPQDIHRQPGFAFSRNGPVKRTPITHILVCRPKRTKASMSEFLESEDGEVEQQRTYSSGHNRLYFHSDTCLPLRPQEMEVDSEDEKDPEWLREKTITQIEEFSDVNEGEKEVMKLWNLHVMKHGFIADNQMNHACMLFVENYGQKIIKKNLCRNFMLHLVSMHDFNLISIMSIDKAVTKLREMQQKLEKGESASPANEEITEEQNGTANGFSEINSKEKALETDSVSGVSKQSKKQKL
Chain of EZH2 (rPRC2) (Q15910 whole entry): as the sequence (Q15910 whole entry Y641N) above, with N641Y counted along it
Chain of EZH2 (rPRC2) (O75530 whole entry partner): as the sequence (O75530 whole entry partner) above
Chain of EZH2 (rPRC2) (Q15022 whole entry partner): as the sequence (Q15022 whole entry partner) above

Consider `COc1cc(C)[nH]c(=O)c1CNC(=O)c1c(C)n(C(C)C2CCNCC2)c2ncncc12` (racemic) [Compound 333, (±)-N-((4-methoxy-6-methyl-2-oxo-1,2-dihydropyridin-3-yl)methyl)-6-methyl-7-(1-(piperidin-4-yl)ethyl)-7H-pyrrolo[2,3-d]pyrimidine-5-carboxamide], for which the IC50 was 100 to 1000 nM on Y641N EZH2 (setting [3]) and < 100 nM at EZH2 (rPRC2) (setting [4]). The EC50 in assay [1] lay in the range of 400 to 2000 nM.
On to `CCC(C)n1c(C)c(C(=O)NCc2c(OC)cc(C)[nH]c2=O)c2ccc(-c3ccc(N4CCNCC4)nc3)cc21` (racemic) [Compound 349, (±)-1-(sec-butyl)-N-((4-methoxy-6-methyl-2-oxo-1,2-dihydropyridin-3-yl)methyl)-2-methyl-6-(6-(piperazin-1-yl)pyridine-3-yl)-1H-indole-3-carboxamide], for which the IC50 on Y641N EZH2 (setting [3]) and against EZH2 (rPRC2) (setting [4]) was < 100 nM throughout. In assay [1], the EC50 lay within 2000 to 10000 nM.
As for `COc1cc(C)[nH]c(=O)c1CNC(=O)c1c(C)n(C(C)C2CCN(S(C)(=O)=O)CC2)c2ccccc12` (single isomer, unassigned) [Compound 336, (R or S)-N-((4-methoxy-6-methyl-2-oxo-1,2-dihydropyridin-3-methyl)-2 methyl-1-(1-(1-(methylsulfonyl)piperidin-4-yl)ethyl)-1 H-indole-3-carboxamide], the EC50 in assay [1] was < 400 nM.
On to `COc1cc(C)[nH]c(=O)c1CNC(=O)c1c(C)n(C(C)C2CCN(C(=O)C(C)(C)O)CC2)c2ccccc12` (single isomer, unassigned) [Compound 337, (R or S)-1-(1-(1-(2-hydroxy-2-methylpropanoyl)piperidin-4-yl)ethyl)-N-((4-methoxy-6-methyl-2-oxo-1,2-dihydropyridin-3-yl)methyl)-2-methyl-IH-indole-3-carboxamide], for which the EC50 in assay [1] is < 400 nM.
Take `COc1cc(C)[nH]c(=O)c1CNC(=O)c1c(C)n(C(C)C2CCN(C3COC3)CC2)c2ccccc12` (single isomer, unassigned) [Compound 341, (R or S)-N-((4-methoxy-6-methyl-2-oxo-1,2dihydropyridin-3-yl)methyl)-2-methyl-1-(1-(1-(oxctan-3-yl)piperidin-4-yl)ethyl)-1 H-indole-3-carboxamide]: the EC50 in assay [1] is < 400 nM.
Regarding `COc1cc(C)[nH]c(=O)c1CNC(=O)c1c(C)n(C(C)C2CCN(C(=O)C(C)C)CC2)c2ccccc12` (single isomer, unassigned) [Compound 342, (R or S)-1-(1-(1-isobulyrylpiperidin-4-yl)ethyl)-N-((4-methoxy-6-methyl-2-oxo-1,2-dihydropyridin-3-yl)methyl)-2-methyl-1H-indole-3-carboxamide], in assay [1], the EC50 was < 400 nM.
For `Cc1cc(OC(F)F)c(CNC(=O)c2c(C)n(C(C)C3CCN(S(C)(=O)=O)CC3)c3ccccc23)c(=O)[nH]1` (single isomer, unassigned) [Compound 344, (R or S)-N((4-(difluoromethoxy)-6-methyl-2-oxo-1,2-dihydropyridin-3-yl)methyl)-2-methy1-1-(1-(1-(methylsulfonyl)piperidin-4-yl)ethyl)-1H-indole-3-carboxamide], in assay [1], the EC50 was < 400 nM.
Take `COCCN1CCC(C(C)n2c(C)c(C(=O)NCc3c(OC)cc(C)[nH]c3=O)c3ccccc32)CC1` (single isomer, unassigned) [Compound 359, (R or S)-N-((4-methoxy-6-methyl-2-oxo-1,2-dihysropyridin-3-yl)methyl)-1-(1-(1-(2-methoxyethyl)piperidin-4-yl)ethyl)-2-methyl-1 H-indole-3-carboxamide]: the concentration giving a half-maximal response (EC50) in assay [1] lay within 400 to 2000 nM.
Regarding `COc1cc(C)[nH]c(=O)c1CNC(=O)c1c(C)n(C(C)C2CCN(CC(F)(F)F)CC2)c2ccccc12` (single isomer, unassigned) [Compound 365, (R or S)-N-((4-methoxy-6-methyl-2-oxo-1,2-dihydropyridin-3-yl)methyl)-2-methyl-1-(1-(1-(2,2,2-trifluoroethyl)piperidin-4-yl)ethyl)-1H-indole-3-carboxamide], in assay [1], the EC50 was < 400 nM.
Regarding `CCc1cc(C)[nH]c(=O)c1CNC(=O)c1c(C)n(C(C)C2CCN(C)CC2)c2ccccc12` (single isomer, unassigned) [Compound 366, (R or S)-N-((4-ethyl-6-methyl-2-oxo-1,2-dihydropyridin-3-yl)methyl)-2-methyl-1-(1-(1-methylpiperidin-4-yl)ethyl-1 H-indole-3-carboxamide], the EC50 in assay [1] lay in the range of 400 to 2000 nM.
The same measure, in the same setting: next, `Cc1cc(C)c(CNC(=O)c2c(C)n(C(C)C3CCN(C)CC3)c3ccccc23)c(=O)[nH]1` (single isomer, unassigned) [Compound 367, (R or S)-N-((4,6-dimethyl-2-oxo-1,2-dihydropyridin-3-yl)methyl)-2-methyl-1-(1-(1-methylpiperidin-4-yl)ethyl)-1 H-indole-3-carboxamide]: < 400 nM.
Turning to `CCS(=O)(=O)N1CCC(C(C)n2c(C)c(C(=O)NCc3c(C)cc(C)[nH]c3=O)c3ccccc32)CC1` (single isomer, unassigned) [Compound 368, (R or S)-N-(4,6-dimethyl-2-oxo-1,2-dihydropyridin-3-yl)methyl)-1-(1-(1-(ethylsulfonyl)piperidin-4-yl)ethyl)-2-methyl-1 H-indole-3-carboxamide], the EC50 in assay [1] was < 400 nM.
As for `Cc1cc(C)c(CNC(=O)c2c(C)n(C(C)C3CCN(C4COC4)CC3)c3ccccc23)c(=O)[nH]1` (single isomer, unassigned) [Compound 375, (R or S)-N-((4,6-dimethyl-2-oxo-1,2-dihydropyridin-3-yl)methyl)-2-methyl-1-(1-(1-(oxctan-3-yl)piperidin-4-yl)ethyl)-1 H-indole-3-carboxamide], the EC50 in assay [1] is < 400 nM.
For `COc1cc(C)[nH]c(=O)c1CNC(=O)c1c(C)n(C2CCCC2)c2ccccc12` [Compound 324, 1-cyclopentyl-N-((4-methoxy-6-methyl-2-oxo-1,2-dihydropyridin-3-yl)methyl)-2-methyl-1H-indole-3-carboxamide], the IC50 on Y641N EZH2 (setting [3]) was 100 to 1000 nM; against EZH2 (rPRC2) (setting [4]), < 100 nM. The EC50 in assay [2] (Homo sapiens, HeLa, 96 h) lay in the range of 2000 to 10000 nM.
On to `Cc1cc(C)c(CNC(=O)c2c(C)n([C@H](C)c3ccccc3)c3ncncc23)c(O)n1` [Compound 395, (R)—N-((2-hydroxy-4,6-dimethylpyridin-3-yl)methyl)-6-methyl-7-(1-phenylethyl)-7H-pyrrolo[2,3-d]pyrimidine-5-carboxamide], for which the IC50 at Y641N EZH2 (setting [3]) is 100 to 1000 nM; against EZH2 (rPRC2) (setting [4]), < 100 nM. Further, the EC50 in assay [2] (Homo sapiens, HeLa, 96 h) was in the range of 2000 to 10000 nM.
For “(±)-1-(1-(3-cyanophenyl)ethyl)-N-(4,6-dimethyl-2-oxo-1,2-dihydropyridin-3-yl)-2-methyl-1H-indole-3-carboxamide [Compound 175]”, the concentration for half-maximal inhibition (IC50) on Y641N EZH2 (setting [5]) and on EZH2 (rPRC2) (setting [6]) was < 100 nM throughout. In assay [2] (HeLa cells, MSD, 96 hours), the EC50 was in the range of 400 to 2000 nM.
On to “N-((4-methoxy-6-methyl-2-oxo-1,2-dihydropyridin-3-yl)methyl)-2-methyl-1-(1-(1-(methylsulfonyl)piperidin-3-yl)ethyl)-1H-indole-3-carboxamide [Compound 320]”, for which the half-maximal inhibitory concentration (IC50) on Y641N EZH2 (setting [5]) and on EZH2 (rPRC2) (setting [6]) was < 100 nM in each case. The EC50 in assay [2] (HeLa cells, MSD, 96 hours) is 400 to 2000 nM.
